Experimental data reported in PMC6680932, “Structure–Antioxidant–Antiproliferative Activity Relationships of Natural C7 and C7–C8 Hydroxylated Flavones and Flavanones” (Antioxidants, 2019).
Where two headings read alike, the source gives them in different places.

Legend:
MCF7 (breast carcinoma) = assay: Antiproliferative activity in vitro, SRB assay; type: cell-based, human; conditions: Homo sapiens, read-out: IC50 ± SD MCF7
Description: (§1) The antiproliferative studies were performed in vitro using human cancer cell lines—MV-4-11 (biphenotypic B myelomonocytic leukemia), MCF7 (breast carcinoma), LoVo (colon cancer), LoVo/DX (colon cancer doxorubicin-resistant), and DU 145 (prostate cancer)—and normal human cell lines—MCF 10A (breast cells) and HLMEC (lung microvascular endothelial cells). The cell lines MV-4-11, LoVo, DU 145, and MCF 10A were obtained from the American Type Culture Collection (Rockville, Maryland, USA), MCF7 from the European Collection of Authenticated Cell Cultures (ECACC, Salisbury, UK), LoVo/DX courtesy of Professor E. Borowski (Technical University of Gdansk, Poland), and HLMECs (which had been already immortalized by transfection with pSV3-neoplasmid containing large T-antigen gene) were the kind gift of Professor Claudine Kieda (Center for Molecular Biophysics, Orleans, France). The cell lines are being maintained in the Hirszfeld Institute of Immunology and Experimental Therapy, Polish Academy of Sciences (HIIET, PAS), Wroclaw, Poland. All cell lines were grown at 37 °C with 5% CO2 humidified atmosphere. The MV-4-11 cells were cultured in RPMI 1640 medium with GlutaMAX (Gibco, Scotland, UK), supplemented with 1 mM sodium pyruvate and 10% fetal bovine serum (both from Sigma-Aldrich, Poznan, Poland). The MCF7 cells were cultured in Eagle medium (HIIET, PAS, Wroclaw, Poland) supplemented with 2 mM L-glutamine, 10% fetal bovine serum, 1% nonessential amino acid solution, and 0.8 mg/L of insulin (all from Sigma-Aldrich, Poznan, Poland). The LoVo and LoVo/DX cells were cultured in a 1:1 (v/v) mixture of RPMI 1640 and Opti-MEM (both HIIET, PAS, Wroclaw, Poland), supplemented with 1 mM sodium pyruvate, 2 mM L-glutamine, and 5% fetal bovine serum (all from Sigma-Aldrich, Poznan, Poland). For LoVo/DX cells, additionally 10 µg/100 mL of doxorubicin (Accord Healthcare) was added to the medium. DU 145 cells were cultured in Eagle medium (HIIET, PAS, Wroclaw, Poland) supplemented with 1 mM sodium pyruvate, 4 mM L-glutamine, and 10% fetal bovine serum (all from Sigma-Aldrich, Poznan, Poland). The MCF 10A cells were cultured in the F-12 nutrient mixture (Gibco, Scotland, UK), supplemented with 5% horse serum (Gibco, Scotland, UK), 0.05 μg/mL of cholera toxin (Vibrio cholerae), 0.5 μg/mL of hydrocortisone, 10 μg/mL of insulin, and 20 ng/mL of human epidermal growth factor (all from Sigma-Aldrich, Poznan, Poland). The HLMEC cells were cultured in the RPMI 1640 medium (HIIET, PAS, Wroclaw, Poland) with the addition of 2 mM L-glutamine (Sigma-Aldrich, Poznan, Poland) and 10% fetal bovine serum (GE Healthcare). All culture media were supplemented with 100 units/mL penicillin (Polfa Tarchomin S.A., Warsaw, Poland) and 100 µg/mL streptomycin (Sigma-Aldrich, Poznan, Poland). Twenty-four hours before addition of the tested agents, the cells were plated in 96-well plates (Sarstedt, Germany) at a density of 1 × 10^4 (1 × 10^3 for HLMEC and 0.75 × 10^4 for MCF7) cells per well in 100 μL of culture medium.
(§2) Tested compounds were dissolved in DMSO and then diluted in a 1:1 (v/v) mixture of RPMI 1640 (HIIET, PAS, Wroclaw, Poland) and Opti-MEM (Gibco, Scotland, UK) medium supplemented with 2 mM L-glutamine (Sigma-Aldrich, Poznan, Poland), 5% fetal bovine serum (GE Healthcare), 100 units/mL penicillin (Polfa Tarchomin S.A., Warsaw, Poland), and 100 µg/mL streptomycin (Sigma-Aldrich, Poznan, Poland). The antiproliferative effects of the flavonoids were examined after 72 h of exposure of the cultured cells to varying concentrations of the tested agents (from 0.1 to 100 μg/mL) using the MTT (for MV-4-11 cells) or SRB assay described below. Cisplatin (chemotherapy drug used to treat a number of cancers) was used as a positive control. The results are presented as an inhibitory concentration 50 (IC50), which is the concentration of the tested agent that inhibits proliferation of the cell population by 50%. IC50 values for each experiment were calculated separately. […]

[1] = test system: HLMEC (lung microvascular endothelial cells); assay: Antiproliferative activity in vitro, SRB assay; type: cell-based, human; conditions: Homo sapiens, Endothelial cell, read-out: IC50 ± SD HLMEC
Description: as §1, §2

[2] = DPPH free radical scavenging activity assay; conditions: for increase of antioxidant activity in DPPH test, biotransformation product vs substrate: 8-hydroxylated product relative to the substrate from which it was obtained; for TEAC DPPH: 10 min, 517 nm, mean ± SD
Description: (§3) The antioxidant capacity of flavonoids was measured in three separate tests: ABTS, DPPH, and ferric ion reducing antioxidant power (FRAP) assays (ABTS, DPPH, and FRAP reagents from Sigma-Aldrich). All tested compounds were dissolved in DMSO. All determinations were performed in triplicate. Standard curves were prepared for all assays using different concentrations of Trolox (6-hydroxy-2,5,7,8-tetramethylchroman-2-carboxylic acid) (Sigma-Aldrich). Trolox is a water-soluble analogue of vitamin E with high antioxidant activity, commonly used as a control and a reference in studies of antioxidant activity. The results were expressed as the equivalent of μmol Trolox per μmol of the test compound. The absorbance was measured using a UV-2401 PC spectrophotometer (Shimadzu, Kyoto, Japan). Concentrations of the tested samples were in the range from 50 µg/mL to 10 mg/mL.
The DPPH (2,2-diphenyl-1-picrylhydrazyl) radical scavenging activity of samples was determined according to the method described by Yen and Chen with some modifications. Samples (0.1 mL) of known concentration were mixed in polystyrene cuvettes with 2 mL of 0.04 mM DPPH in ethanol and 0.4 mL of ethanol. The absorbance was measured after 10 min at λ = 517 nm. The DPPH reagent was freshly prepared before each experiment.

[3] = FRAP (ferric ion reducing antioxidant power) assay; conditions: for TEAC FRAP: 10 min, 593 nm, mean ± SD
Description: as §3
The FRAP method is based on measuring the ability of antioxidants to reduce ferric 2,4,6-tris(2-pyridyl)-1,3,5-triazine [Fe(III)-TPTZ] in the blue colored ferrous form, which absorbs light at λ = 593 nm. The Fe(III)-TPTZ reagent was prepared as a mixture of acetate buffer (pH 3.6), 10 mM TPTZ in 40 mM HCl, and 20 mM FeCl3 in the ratio of 10:1:1 (v/v/v). The FRAP reagent was freshly prepared before each experiment. The samples (0.1 mL) were mixed in polystyrene cuvettes with 3 mL of ferric complex and 0.9 mL of distilled water. The absorbance was measured after 10 min at λ = 593 nm.

[4] = ABTS radical cation decolorization assay; conditions: for increase of antioxidant activity in ABTS test, biotransformation product vs substrate: 8-hydroxylated product relative to the substrate from which it was obtained; for TEAC ABTS: 6 min incubation, 734 nm, mean ± SD
Description: as §3
The radical cation scavenging capacity of the tested compounds was examined against ABTS^+ (2,2’-azino-bis(3-ethylbenzo-thiazoline-6-sulfonic acid) according to the procedure described by Re et al. with some modifications. The test sample (30 μL) of known concentration was mixed in a polystyrene cuvette with 3 mL of ABTS solution with a measured absorption of 0.700 at a wavelength of λ = 734 nm. After 6 min of incubation, the absorption of samples was recorded. The ABTS reagent was freshly prepared before each experiment.

LoVo (colon cancer) = assay: Antiproliferative activity in vitro, SRB assay; type: cell-based, human; conditions: Homo sapiens, LoVo, 72 h, read-out: IC50 ± SD LoVo
Description: as §1, §2

[5] = test system: MV-4-11 (biphenotypic B myelomonocytic leukemia); assay: Antiproliferative activity in vitro, MTT assay; type: cell-based, human; conditions: Homo sapiens, MV4-11, 72 h exposure, read-out: IC50 ± SD MV-4-11
MCF 10A (breast cells) = assay: Antiproliferative activity in vitro, SRB assay; type: cell-based, human; conditions: Homo sapiens, MCF-10A, read-out: IC50 ± SD MCF 10A
Description: as §1, §2

[6] = test system: LoVo/DX (colon cancer doxorubicin-resistant); assay: Antiproliferative activity in vitro, SRB assay; type: cell-based, human; conditions: Homo sapiens, LoVo/DX, 72 h exposure, read-out: IC50 ± SD LoVo/DX
DU 145 (prostate cancer) = assay: Antiproliferative activity in vitro, SRB assay; type: cell-based, human; conditions: Homo sapiens, DU-145, 72 h, read-out: IC50 ± SD DU 145
[7] = 72 h exposure, SRB, normal cell line

SMILES | IC50 (MCF7 (breast carcinoma); MCF7, 72 h exposure, SRB) | IC50 [1, 7] | increase of antioxidant activity in DPPH test, biotransformation product vs substrate [2] | TEAC DPPH [2] | increase of antioxidant activity in FRAP test, biotransformation product vs substrate ([3]; 8-hydroxylated product relative to the substrate from which it was obtained) | TEAC FRAP [3] | increase of antioxidant activity in ABTS test, biotransformation product vs substrate [4] | TEAC ABTS [4] | IC50 (LoVo (colon cancer); 72 h exposure, SRB) | IC50 [5] | IC50 (MCF 10A (breast cells); [7]) | IC50 [6] | IC50 (MCF 10A (breast cells); 72 h) | IC50 (LoVo (colon cancer)) | IC50 (MCF7 (breast carcinoma); MCF7, 72 h) | IC50 ([1]; 72 h) | IC50 (DU 145 (prostate cancer))
COc1ccc(C2CC(=O)c3c(O)cc(O)c(O)c3O2)cc1O (stereo not shown) [Compound 18, 8-hydroxyhesperetin] | 135 ± 20.3 µM | 97.1 ± 5.15 µM | 144 fold | 14.150 ± 0.229 µmol trolox per µmol of tested | 6 fold | 25.260 ± 0.909 µmol trolox per µmol of tested | more than twice as active | 31.187 ± 1.353 µmol trolox per µmol of tested |  |  |  |  |  |  |  |  | 
COc1ccc(-c2cc(=O)c3c(O)cc(O)c(O)c3o2)cc1O [Compound 12, 8-Hydroxydiosmetin] |  | 108 ± 15.4 µM |  | 8.496 ± 0.040 µmol trolox per µmol of tested |  | 11.340 ± 0.203 µmol trolox per µmol of tested |  | 13.405 ± 0.826 µmol trolox per µmol of tested | 224 ± 15.3 µM |  |  |  |  |  |  |  | 
O=c1cc(-c2ccccc2)oc2c(O)c(O)cc(O)c12 [Compound 9, 8-hydroxychrysin] |  | 120 ± 2.24 µM | about 2000 fold | 8.038 ± 0.061 µmol trolox per µmol of tested |  | 8.900 ± 0.582 µmol trolox per µmol of tested | about 170 fold | 14.173 ± 1.591 µmol trolox per µmol of tested |  |  |  |  |  |  |  |  | 
O=c1cc(-c2ccc(O)c(O)c2)oc2c(O)c(O)cc(O)c12 [Compound 11, 8-hydroxyluteolin] |  | 106 ± 1.72 µM |  | 13.208 ± 0.080 µmol trolox per µmol of tested |  | 36.895 ± 0.432 µmol trolox per µmol of tested | more than twice as active | 34.450 ± 1.016 µmol trolox per µmol of tested | 238 ± 35.4 µM |  |  |  |  |  |  |  | 
O=c1cc(-c2ccccc2)oc2cc(O)cc(O)c12 [Compound 1, Chrysin] | 75 ± 26.1 µM | 22.9 ± 2.02 µM |  | 0.004 ± 0.001 µmol trolox per µmol of tested |  |  |  | 0.084 ± 0.011 µmol trolox per µmol of tested | 28 ± 8.17 µM | 15.1 ± 1.99 µM | 27 ± 12 µM | 13 ± 1.29 µM |  |  |  |  | 
O=C1CC(c2ccccc2)Oc2c(O)c(O)cc(O)c21 (stereo not shown) [Compound 13, 8-hydroxypinocembrin] |  | 148 ± 13.4 µM | about 1800 fold | 9.164 ± 0.097 µmol trolox per µmol of tested |  | 12.861 ± 0.313 µmol trolox per µmol of tested | about 130 fold | 20.763 ± 0.939 µmol trolox per µmol of tested |  |  |  |  |  |  |  |  | 
O=C1C[C@@H](c2ccc(O)c(O)c2)Oc2cc(O)cc(O)c21 [Compound 7, eriodictyol] |  |  |  | 9.582 ± 0.315 µmol trolox per µmol of tested |  | 10.619 ± 0.319 µmol trolox per µmol of tested |  | 13.988 ± 0.251 µmol trolox per µmol of tested |  |  |  | 99.2 ± 12.5 µM | 147 ± 36.2 µM | 101 ± 10.9 µM | 151 ± 9.31 µM | 25.8 ± 6.71 µM | 121 ± 18.4 µM
COc1ccc(-c2cc(=O)c3c(O)cc(O)cc3o2)cc1O [Compound 4, diosmetin] | 123 ± 37.4 µM | 14.4 ± 1.95 µM |  | 0.008 ± 0.001 µmol trolox per µmol of tested |  |  |  | 1.712 ± 0.041 µmol trolox per µmol of tested | 15 ± 2.2 µM | 8.39 ± 3.53 µM |  | 13.4 ± 3.02 µM |  |  |  |  | 
